Measured values: US9527847B2, “Treatment of lupus, fibrotic conditions, and inflammatory myopathies and other disorders using PI3 kinase inhibitors” (INFINITY PHARMACEUTICALS, INC., priority 2012, dated 2016)

Tests used:
PI3K β = target: T1, PI3K β (Homo sapiens, UniProt P42338); test: In vitro IC50, PI3K β (Table 3); assay type: biochemical
T1 construct: purchased Upstate
Description: (§1) An exemplary system is PI 3-Kinase (human) HTRF™ Assay from Upstate. […] The total reaction volume is approximately 20 μl per well. […] The reaction is stopped by adding 5 μl of Stop Solution per well and then 5 μl of Detection Mix is added per well.

B cell proliferation = B cell proliferation EC50 (Table 3); assay type: cell-based; details: in vitro
PI3K γ = target: T2, PI3K γ (Homo sapiens, UniProt P48736); test: In vitro IC50, PI3K γ (Table 3); assay type: biochemical
T2 construct: purchased Sigma
T2 sequence (P48736 whole entry): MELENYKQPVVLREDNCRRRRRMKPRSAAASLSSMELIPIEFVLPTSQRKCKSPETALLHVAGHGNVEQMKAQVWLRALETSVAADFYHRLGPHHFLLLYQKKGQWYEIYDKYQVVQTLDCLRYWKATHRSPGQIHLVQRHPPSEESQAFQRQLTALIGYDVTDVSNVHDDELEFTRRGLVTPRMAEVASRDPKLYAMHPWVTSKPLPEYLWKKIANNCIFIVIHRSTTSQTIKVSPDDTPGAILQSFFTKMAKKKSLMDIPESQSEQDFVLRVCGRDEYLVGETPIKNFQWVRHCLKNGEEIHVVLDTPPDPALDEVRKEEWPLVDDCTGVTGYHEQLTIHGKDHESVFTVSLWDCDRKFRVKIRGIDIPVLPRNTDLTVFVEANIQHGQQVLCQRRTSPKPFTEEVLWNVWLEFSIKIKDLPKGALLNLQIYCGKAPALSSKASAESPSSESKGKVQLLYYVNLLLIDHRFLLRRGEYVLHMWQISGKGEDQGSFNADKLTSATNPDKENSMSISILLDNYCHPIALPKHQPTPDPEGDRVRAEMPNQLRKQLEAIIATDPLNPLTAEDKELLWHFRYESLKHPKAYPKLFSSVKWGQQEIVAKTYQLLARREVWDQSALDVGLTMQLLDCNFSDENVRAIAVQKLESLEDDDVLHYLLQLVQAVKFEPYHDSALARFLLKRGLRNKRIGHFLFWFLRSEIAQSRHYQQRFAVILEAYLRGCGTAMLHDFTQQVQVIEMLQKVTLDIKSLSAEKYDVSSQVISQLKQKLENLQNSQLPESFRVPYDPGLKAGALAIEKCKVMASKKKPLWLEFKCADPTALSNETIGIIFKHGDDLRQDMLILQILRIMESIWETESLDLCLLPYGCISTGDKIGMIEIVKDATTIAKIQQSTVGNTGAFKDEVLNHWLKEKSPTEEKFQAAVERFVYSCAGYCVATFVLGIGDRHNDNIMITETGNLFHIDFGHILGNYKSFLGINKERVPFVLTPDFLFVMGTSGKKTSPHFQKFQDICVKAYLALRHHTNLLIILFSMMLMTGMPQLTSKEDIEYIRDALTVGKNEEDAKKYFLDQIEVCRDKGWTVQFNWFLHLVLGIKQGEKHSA
Description: as §1

PI3K α = target: T3, PI3K α (Homo sapiens, UniProt P42336); test: In vitro IC50, PI3K α (Table 3); assay type: biochemical
T3 construct: purchased Upstate
T3 sequence (P42336 whole entry): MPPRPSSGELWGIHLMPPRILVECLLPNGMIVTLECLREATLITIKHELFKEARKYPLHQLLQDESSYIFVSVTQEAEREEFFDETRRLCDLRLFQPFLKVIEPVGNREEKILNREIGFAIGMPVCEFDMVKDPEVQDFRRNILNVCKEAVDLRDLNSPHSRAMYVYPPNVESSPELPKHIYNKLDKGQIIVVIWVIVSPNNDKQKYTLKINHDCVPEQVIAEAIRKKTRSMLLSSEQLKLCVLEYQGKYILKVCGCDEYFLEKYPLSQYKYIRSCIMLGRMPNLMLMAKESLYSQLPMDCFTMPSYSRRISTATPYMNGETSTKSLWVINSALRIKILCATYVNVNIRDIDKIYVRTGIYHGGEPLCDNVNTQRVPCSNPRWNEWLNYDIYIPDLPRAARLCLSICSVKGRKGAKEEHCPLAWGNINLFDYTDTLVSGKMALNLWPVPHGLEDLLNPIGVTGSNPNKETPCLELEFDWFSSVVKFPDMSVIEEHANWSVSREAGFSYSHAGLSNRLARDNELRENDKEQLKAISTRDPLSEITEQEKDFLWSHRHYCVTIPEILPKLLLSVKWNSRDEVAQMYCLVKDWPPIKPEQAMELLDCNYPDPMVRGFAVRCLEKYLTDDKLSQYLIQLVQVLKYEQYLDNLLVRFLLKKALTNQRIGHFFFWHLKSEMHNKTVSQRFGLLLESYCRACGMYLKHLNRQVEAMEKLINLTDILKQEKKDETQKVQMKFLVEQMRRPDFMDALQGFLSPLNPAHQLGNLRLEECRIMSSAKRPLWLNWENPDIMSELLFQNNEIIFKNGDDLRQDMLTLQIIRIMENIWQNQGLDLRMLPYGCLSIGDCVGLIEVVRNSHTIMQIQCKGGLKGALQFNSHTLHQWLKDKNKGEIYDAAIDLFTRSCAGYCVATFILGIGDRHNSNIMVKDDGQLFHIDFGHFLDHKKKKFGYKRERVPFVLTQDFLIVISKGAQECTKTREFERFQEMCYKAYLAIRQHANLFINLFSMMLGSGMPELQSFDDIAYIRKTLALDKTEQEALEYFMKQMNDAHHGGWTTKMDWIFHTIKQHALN
T3 sequence (P27986 whole entry partner): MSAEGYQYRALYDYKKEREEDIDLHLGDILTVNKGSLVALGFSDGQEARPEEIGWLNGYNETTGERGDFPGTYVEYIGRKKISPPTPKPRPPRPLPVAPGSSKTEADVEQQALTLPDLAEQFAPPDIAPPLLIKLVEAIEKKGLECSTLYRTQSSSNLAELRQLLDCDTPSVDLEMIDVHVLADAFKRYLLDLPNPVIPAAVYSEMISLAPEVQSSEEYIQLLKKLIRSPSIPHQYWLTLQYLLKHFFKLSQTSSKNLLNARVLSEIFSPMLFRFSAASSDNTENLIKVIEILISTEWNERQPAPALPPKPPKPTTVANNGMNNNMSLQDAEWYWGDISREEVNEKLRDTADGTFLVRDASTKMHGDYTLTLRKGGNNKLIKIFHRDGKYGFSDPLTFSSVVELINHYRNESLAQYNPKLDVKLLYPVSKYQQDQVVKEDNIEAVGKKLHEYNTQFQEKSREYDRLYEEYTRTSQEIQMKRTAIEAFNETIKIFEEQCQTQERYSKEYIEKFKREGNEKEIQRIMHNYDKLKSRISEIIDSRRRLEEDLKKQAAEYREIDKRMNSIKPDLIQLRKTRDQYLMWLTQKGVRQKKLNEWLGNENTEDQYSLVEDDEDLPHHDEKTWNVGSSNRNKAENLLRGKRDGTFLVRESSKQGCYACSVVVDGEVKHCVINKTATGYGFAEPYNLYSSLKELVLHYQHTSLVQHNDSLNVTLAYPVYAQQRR
Description: as §1

mouse EAE model = test: Experimental Autoimmune Encephalomyelitis (EAE) model, semi-therapeutic, 28 day; assay type: in vivo; details: FTY720 3 mg/kg QD p.o.
Description: EAE was induced in 60 mice using Hooke Kit™ MOG35-55/CFA Emulsion PTX (Hooke Laboratories, Lawrence Mass.), catalog number EK-0110, lot number 0104, per manufacturer's recommended protocol, except that pertussis toxin was diluted with phosphate buffered saline to achieve 1.4× and 1.3× solution (starting from the 1.5× solution in the kit). This was done to optimize disease severity for this particular study.
Mice were injected subcutaneously, at two sites in the back, with the emulsion component of the kit (containing MOG35-55). One site of injection was in the area of the upper back, approximately 1 cm caudal of the neck line. The second site was in the area of the lower back, approximately 2 cm cranial of the base of the tail. Injection volume was 0.1 mL at each site. Within 2 hours of the injection of emulsion, and then again 24 hours after the injection of emulsion, the pertussis toxin component of the kit was administered intraperitoneally. Volume of each injection was 0.1 mL.
Vehicle for Group 2 (FTY720) was water and 2% ethanol. Vehicle for all other groups was water, 0.5% CMC (low viscosity), and 0.05% Tween80. Mice were dosed at the same time every day, +/−1 hour. The last day of dosing was Day 27 after immunization.
Readouts were EAE scores and changes in body weight. Mice were scored daily from Day 7 to Day 28, and body weights were measured three times/week (Monday, Wednesday and Friday), starting on Day −1.
EAE was scored on scale 0 to 5: • 0 No obvious changes in motor functions of the mouse in comparison to non-immunized mice. When picked up by the tail, the tail has tension and is erect. Hind legs are usually spread apart. When the mouse is walking, there is no gait or head tilting. • 1 Limp tail. When the mouse is picked up by the tail, instead of being erect, the whole tail drapes over finger. • 2 Limp tail and weakness of hind legs. When mouse is picked up by tail, legs are not spread apart, but held closer together. When the mouse is observed walking, it has a clearly apparent wobbly walk. • 3 Limp tail and complete paralysis of hind legs (most common); or limp tail with paralysis of one front and one hind leg; or all of: severe head tilting, walking only along the edges of the cage, pushing against the cage wall, and spinning when picked up by the tail. • 4 Limp tail, complete hind leg and partial front leg paralysis. Mouse is minimally moving around the cage but appears alert and feeding Usually, euthanasia is recommended after the mouse scores level 4 for 2 days. When the mouse is euthanized because of severe paralysis, score of 5 is entered for that mouse for the rest of the experiment. • 5 Complete hind and complete front leg paralysis, no movement around the cage; or mouse is spontaneously rolling in the cage; or mouse is found dead due to paralysis.
At the end of the study 3 luxol fast blue (LFB) stained sections and 3 H&E sections, from lumbar, thoracic, and cervical spinal cord of all mice in Groups 1, 2, 3, and 6 and the 3 naïve mice were prepared and analyzed.
Inflammatory foci were counted in each H&E stained section. Each group of approximately 20 cells was counted as one focus. Foci larger than 20 cells were counted based on an estimate of how many foci of 20 cells were present.
The demyelination score represents an estimate of demyelinated area for each section as follows. For LFB stained slides, the demyelinated area was estimated based on intensity of blue staining of myelin. For H&E stained sections, demyelinated area was estimated by looking for interruption of normal structure—pallor and vacuolation consistent with edema and demyelination, and dilated axons. • 0—no demyelination (less than 5% demyelinated area) • 1—5 to 20% demyelinated area • 2—20 to 40% demyelinated area • 3—40 to 60% demyelinated area • 4—60 to 80% demyelinated area • 5—80 to 100% demyelinated area.
The number of apoptotic cells in each of the three H&E sections was determined.

NZBWF1/J mice = test: Murine NZB/W F1 lupus model; assay type: in vivo, mouse; details: 2 mg/kg PO QD, vs vehicle
Text: Female NZBWF1/J mice (n=60) that were 8 weeks old on arrival and weighed approximately 35-51 grams (mean 42 g) at enrollment (mouse age approx. 23 weeks) were obtained from The Jackson Laboratory, Bar Harbor, Me. (stock number 100008). Animals were identified by a distinct number of ink marks at the base of the tail delineating animal number. After enrollment, all cages were labeled with protocol number, group number, and animal numbers.
Mice were terminated at age 43 weeks (day 140).
All dose solutions were prepared to deliver in 10 ml/kg (0.3 ml/30 g mouse).
Body weights were measured and recorded prior to study initiation for randomization, on the first day of dosing prior to dosing, and weekly throughout the study. Body weights were also recorded at scheduled termination points and as needed if test subjects appeared to decrease in weight by visual inspection. The animals were observed daily for significant clinical signs, morbidity and mortality.
Urine from each animal was tested weekly (beginning at mouse age 23 weeks) for proteinuria using Clinitech Multistick test strips (Bayer).
At necropsy, animals were anesthetized with isoflorane and bled via cardiac puncture for serum (for clinical chemistry analysis) and plasma (for Anti-dsDNA ELISA and PK). Terminal urine was collected and assessed. Spleens and kidneys (paired) were collected, weighed, and placed in 10% NBF. Serum obtained at necropsy was sent to Antech Diagnostics for analysis. Terminal plasma samples were split with half being used for Anti-dsDNA ELISA and the other half being shipped to the sponsor.
Anti-dsDNA IgG analysis was performed on days 0, 49, 98, and 140 (mouse age 23, 30, 37, and 43 weeks). Anti-dsDNA IgG levels were determined using an Anti-dsDNA IgG ELISA Kit (Alpha Diagnostic, kit #5120, lot #90903K4) following manufacturer's instructions.
Blood samples for clinical chemistry evaluation were collected at termination via cardiac puncture from Isoflurane anesthetized animals into serum separator microtainer tubes. Serum was sent to Antech Diagnostics for analysis.
The following parameters were measured: Albumin (ALB), Albumin: Globulin ratio (A/G), Alkaline phosphatase (ALK), Alanine aminotransferase (ALT), Aspartate aminotransferase (AST), Calcium (CA), Magnesium (Mg), Phosphorous (P), Globulin (GLOB), Electrolytes (Sodium (Na), Potassium (K), Chloride (Cl)), Gamma glutamyltransferase (GGT), Total bilirubin (TBILI), Amylase (AMY), Lipase (LIP), Osmolality, Triglycerides (TRIG), Total cholesterol (CHOL), Urea nitrogen (BUN), Creatinine (CREAT), Glucose (GLU), Total protein (TP), and Creatinine kinase (CPK).
Histopathologic evaluation was performed on kidneys. Kidneys from all surviving animals were examined microscopically by a board certified veterinary pathologist and observations were entered into a computer-assisted data retrieval system. Kidney sections were stained with Masson's Trichrome, or Hematoxylin and Eosin. To maintain blinding of the analysis, slides were labeled with the animal number with no reference to treatment group.
Kidneys were scored according to the following system (developed by Chan O, Madaio M P, Shlomchik M J. The roles of B cells in MRL/lpr murine lupus. Annals New York Academy of Sciences, 1997; 815:75-82), modified to suit the lesion severity.
• 0=Normal. • 1=Focal or multifocal, minimal to mild, early proliferative. • 2=Multifocal mild to moderate or mild diffuse proliferative. • 3=Diffuse moderate proliferative with or without multifocal severe areas. • 4=Marked diffuse proliferative, with crescents/sclerosis, multifocal protein casts present. • 5=Severe diffuse proliferative, with crescents/sclerosis, diffuse protein casts present. […]

T1 sequence (P42338 whole entry): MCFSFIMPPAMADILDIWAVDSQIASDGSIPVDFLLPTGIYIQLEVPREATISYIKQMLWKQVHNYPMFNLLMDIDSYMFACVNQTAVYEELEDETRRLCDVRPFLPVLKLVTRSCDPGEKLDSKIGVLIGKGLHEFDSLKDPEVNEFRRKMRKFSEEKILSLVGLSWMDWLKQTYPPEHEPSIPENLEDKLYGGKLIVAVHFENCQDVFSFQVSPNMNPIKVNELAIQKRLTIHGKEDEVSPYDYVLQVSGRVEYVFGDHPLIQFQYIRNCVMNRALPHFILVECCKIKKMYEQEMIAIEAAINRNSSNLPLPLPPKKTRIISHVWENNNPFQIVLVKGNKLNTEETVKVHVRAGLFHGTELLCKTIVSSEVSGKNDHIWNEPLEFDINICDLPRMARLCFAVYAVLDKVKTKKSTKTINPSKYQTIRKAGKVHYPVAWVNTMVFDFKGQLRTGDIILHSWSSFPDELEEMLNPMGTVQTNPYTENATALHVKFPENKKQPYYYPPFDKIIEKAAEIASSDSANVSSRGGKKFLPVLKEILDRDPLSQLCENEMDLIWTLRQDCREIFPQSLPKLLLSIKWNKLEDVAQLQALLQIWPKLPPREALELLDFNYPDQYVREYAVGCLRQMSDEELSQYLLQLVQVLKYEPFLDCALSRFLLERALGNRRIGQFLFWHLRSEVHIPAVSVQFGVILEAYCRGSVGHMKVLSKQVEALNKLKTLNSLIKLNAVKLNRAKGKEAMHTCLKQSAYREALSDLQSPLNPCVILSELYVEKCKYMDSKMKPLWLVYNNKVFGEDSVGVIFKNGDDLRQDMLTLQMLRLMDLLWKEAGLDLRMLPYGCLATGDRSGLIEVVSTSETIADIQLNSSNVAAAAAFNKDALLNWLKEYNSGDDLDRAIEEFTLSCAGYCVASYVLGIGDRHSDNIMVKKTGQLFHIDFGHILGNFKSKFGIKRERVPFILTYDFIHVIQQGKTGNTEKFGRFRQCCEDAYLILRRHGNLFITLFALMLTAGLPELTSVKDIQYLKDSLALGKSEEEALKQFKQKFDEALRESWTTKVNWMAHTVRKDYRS
T1 sequence (P27986 whole entry partner): as the sequence (P27986 whole entry partner) above

For `Cc1ccccc1-n1c(Cn2nc(-c3cc(O)cc(F)c3)c3c(N)ncnc32)cc2cccc(C)c2c1=O` [Compound 8], the IC50 (PI3K β) was over 10 µM and the EC50 (B cell proliferation) was under 1 µM.
Work on `Cc1cccc2cc(Cn3nc(C#CCO)c4c(N)ncnc43)n(-c3ccccc3F)c(=O)c12` [Compound 7] yielded an IC50 (PI3K γ) of under 0.1 µM, an IC50 (PI3K α) of under 10 µM and an IC50 (PI3K β) of under 1 µM. It also gave an EC50 (B cell proliferation) of under 0.1 µM.
With `CCCCCCCCc1ccc(CCC(N)(CO)CO)cc1` [FTY720, reference compound] the “MMS +/− SD” value (mouse EAE model) was 1.65 +/− 1.23, the “Median Day of Onset” value (mouse EAE model) was 11.5 days and the “End % body weight +/− SD” value (mouse EAE model; Day 27 relative to Day −1) was 110.0 +/− 7.4%. For the same compound, the “End score +/− SD” value (mouse EAE model; Day 28) was 0.45 +/− 0.44, the “Inflammatory foci +/− SD” value (mouse EAE model; per spinal cord section) was 0.3 +/− 0.4 and the “Demyelination (LFB) +/− SD” value (mouse EAE model; score per section) was 0.3 +/− 0.3.
`Cc1ccccc1-n1c(Cn2nc(I)c3c(N)ncnc32)cc2cccc(C)c2c1=O` [Compound 6] gave an EC50 (B cell proliferation) of under 0.1 µM.
With `C[C@@H]1C[C@H]2[C@@H]3CCC4=CC(=O)C=C[C@]4(C)[C@@]3(F)[C@@H](O)C[C@]2(C)[C@@]1(O)C(=O)CO` [Dex, dexamethasone, reference compound] the Glomerulonephritis score reduction (NZBWF1/J mice; kidney histopathology) was 91%, the “Interstitial nephritis score reduction” value (NZBWF1/J mice) was 95% and the Kidney weight increase (NZBWF1/J mice) was 20%. The “Perivascular inflammation score reduction” value (NZBWF1/J mice) was 100%, the Spleen weight reduction (NZBWF1/J mice) was 76% and the “Summed histopathology scores reduction” value (NZBWF1/J mice) was 88%.
